Assay [1] addresses T1, porcine tubulin (Sus scrofa, UniProt P02550+P02554).
T1 construct: purchased Cytoskeleton Inc., Denver, CO BK011P
The experiment in a line: Tubulin polymerisation fluorescence-based assay. It counts as biochemical. Conditions: 5 μM, 37 °C, 60 min; qualitative. As for the experimental part: The effect of compounds 16a,b,d on tubulin polymerisation was measured in vitro using tubulin polymerisation fluorescence-based assay (cytoskeleton, cat. BK011P, https://www.cytoskeleton.com/bk011p). The assay was performed following the previous report[22] and according to the manufacturer’s instructions. Briefly, 2 mg/mL porcine tubulin was dissolved in buffer 1 (80 mM PIPES, 2 mM MgCl2, 0.5 mM EGTA pH 6.9, 10 µM fluorescent reporter, 1 mM GTP, 15% glycerol) to a final concentration of […]. Then tubulin solution was transferred to a pre-warmed 96-well plate that contained the test compounds 16a,b,d (5 μM), paclitaxel (3 μM), CaCl2 (0.5 μM), and control buffer. The polymerisation of tubulin was monitored as fluorescence at 37 °C for 60 min. Relative fluorescence units (RFU) were determined at 360 nm for excitation and at 460 nm for emission using the Varioskan Flash spectral scanning multimode reader (Thermo Fisher Scientific, Roskilde, Denmark) at a reading speed of 1 cycle/min.
In the current study, the new compounds were designed bearing the trimethoxy phenyl moiety aiming to obtain new cytotoxic agents that can interfere with tubulin polymerisation in cancer cells. […] In this assay, light scattering by microtubules which is directly proportional to the concentration of the microtubule polymer was used as a measure of tubulin polymerisation. The study was performed using a fluorescence-based tubulin polymerisation assay kit (Cytoskeleton Inc., Denver, CO; Cat # BK011P) following the manufacturer’s instructions (https://www.cytoskeleton.com/bk011p) and according to the previous report.
Paclitaxel (3 μM) was used as a tubulin polymerisation enhancer (positive control, enhancer), while calcium chloride (CaCl2, 0.5 μM) was used as a positive control (inhibitor) as per the manufacturer’s instructions (https://www.cytoskeleton.com/pdf-storage/datasheets/bk011p.pdf). The vehicle was also used to evaluate the polymerisation when tubulin is incubated in the absence of the test compound. The effect of the selected compounds (5 μM) on tubulin polymerisation was evaluated and compared with those of the positive control. The results are represented in Figure 8.

The target of assay [2] is T2, CDK-2 (Homo sapiens, UniProt P24941).
T2 construct: purchased Promega, Madison, WI
Nature of the assay: CDK-2 inhibitory assay (ADP-Glo). It counts as biochemical. Conditions: three determinations, read-out: IC50 (μM) ± SEM CDK-2. (ADP-Glo first removes unused ATP, then detects ADP through luciferase.)
Excerpt: The assay was done according to the manufacturer’s instructions and as described in the previous report[21].

For assay [3], the system named is MCF-7 cells. The experiment in a line: Annexin V-FITC/PI apoptosis assay. It counts as cell-based, human. Conditions: 0.1 μM, 24 h; for % Cell number, Early apoptosis / % Cell number, Late apoptosis / % Cell number, Live cells / % Cell number, Necrosis: n = 3. As for the experimental part:
The ability of compounds 16a,b,d to induce apoptotic changes in MCF-7 cells was determined by Annexin V-FITC/PI staining according to the previous report[13]^,[18]^,[19]. Additionally, the morphological changes in MCF-7 cells were examined by microscope. Following treatment with the test compounds at 0.1 µM for 24 h, the cells were stained with annexin V and PI. The determination of necrotic, early/late apoptotic changes were performed by flow cytometer (FC500, Beckman Coulter, Miami, FL).
The cytotoxic activity of our previously reported pyrrolizine-5-carboxamide 9a was mediated by the induction of apoptosis in MCF-7 cells[13]^,[19]. […] The cancer cells were treated with the test compounds (0.1 μM) for 24 h. The induction of apoptosis in MCF-7 cells by the selected compounds was investigated using annexin V fluorescein isothiocyanate (FITC)/propidium iodide (PI) staining assay. The assay procedures were the same as those applied in the previous report. Compound 16a increased apoptosis (early and late events) in MCF-7 cells to 19% compared to 1% in the control. Moreover, compound 16b caused a significant increase of MCF-7 apoptotic cells which was similar to the effect of compound 16a.

Assay [4] deals with MCF-7/ADR cells. Nature of the assay: MTT assay, doxorubicin-resistant cells. Type of assay: cell-based. The conditions noted are these: Homo sapiens, NCI/ADR-RES, 72 h treatment, n = 3, read-out: IC50 (µM ± SD) MCF-7/ADR. As for the experimental part: MCF-7 (human breast adenocarcinoma), A2780 (human ovarian cancer) and HCT116 (human colorectal carcinoma), and MRC-5 (normal foetal lung fibroblast) cell lines were bought from the ATCC and were cultured in flasks which were incubated at 37 °C in an atmosphere of 5% CO2, 95% air, and 100% relative humidity, to maintain continuous logarithmic growth. MCF-7, A2780, and HCT116 were maintained in RPMI-1640 media (100 U/mL penicillin, 100 µg/mL streptomycin, and 10% foetal bovine serum, Gibco, Carlsbad, CA). MRC-5 cells were maintained in EMEM (100 U/mL penicillin, 100 µg/mL streptomycin, and 10% foetal bovine serum, Gibco, Carlsbad, CA). Doxorubicin (5 μg/mL, for three months) added for RPMI-1640 media containing MCF7 cells was used to develop doxorubicin-resistant MCF7/ADR cells. All cancer and normal cell lines were cultured according to our previous report. Cells were used within 10–20 passages and were checked for mycoplasma every 6 months, by measuring the bioluminescence (Myco Alert sample detection kit; Lonza, Basel, Switzerland) using the multiplate reader (Synergy HT, BioTek, Winooski, VT).
The MTT assay was used to measure the cytotoxicity and growth inhibitory activities and cytotoxicity of the new compounds according to our previous report[13]^,[17]. Cells from flasks of 70–80% confluency were separately seeded in 96-well flat-bottom microculture plates (Nalgene-Nunc, Thermo Fisher Scientific, Roskilde, Denmark) at a density of 3 × 10^3 cells (MCF-7, A2780, and MRC-5), 1 × 10^4 cells (HCT116), to a volume of 180 μL/well of culture medium. A Neubauer haemocytometer was used for cell counting. Cells were incubated at 37 °C overnight to allow attachment to the wells. The final concentrations of each compound in wells were: 0–50 μM in 200 μL of media (DMSO 0.1%). Lapatinib (Cayman, Ann Arbor, MI) was used as a positive control at the same final concentrations. […] Cytotoxicity of the new compounds was calculated after treatment of cancer/normal cell lines for 72 h. The absorbance of the reduced MTT was determined using a microplate reader A570 nm. […]
For orientation: Tetrazolium assays rely on reduction of a dye to a coloured formazan, in cell work by metabolically active cells.

Where “and” joins values, the source holds several entries; their conditions need not be identical. Identical values can stand only once.

T1 sequence (P02550 whole entry): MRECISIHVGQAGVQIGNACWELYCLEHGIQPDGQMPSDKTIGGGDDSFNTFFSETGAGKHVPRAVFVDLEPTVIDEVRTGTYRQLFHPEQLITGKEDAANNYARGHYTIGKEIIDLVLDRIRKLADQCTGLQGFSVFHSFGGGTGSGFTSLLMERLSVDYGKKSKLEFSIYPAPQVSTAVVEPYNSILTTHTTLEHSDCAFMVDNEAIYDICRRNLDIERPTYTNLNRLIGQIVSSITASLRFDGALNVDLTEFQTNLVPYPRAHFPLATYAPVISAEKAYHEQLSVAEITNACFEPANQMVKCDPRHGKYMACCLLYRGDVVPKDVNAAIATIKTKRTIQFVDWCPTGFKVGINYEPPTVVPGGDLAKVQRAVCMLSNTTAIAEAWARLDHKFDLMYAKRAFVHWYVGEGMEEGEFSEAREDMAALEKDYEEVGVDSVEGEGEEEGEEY
T1 sequence (P02554 whole entry): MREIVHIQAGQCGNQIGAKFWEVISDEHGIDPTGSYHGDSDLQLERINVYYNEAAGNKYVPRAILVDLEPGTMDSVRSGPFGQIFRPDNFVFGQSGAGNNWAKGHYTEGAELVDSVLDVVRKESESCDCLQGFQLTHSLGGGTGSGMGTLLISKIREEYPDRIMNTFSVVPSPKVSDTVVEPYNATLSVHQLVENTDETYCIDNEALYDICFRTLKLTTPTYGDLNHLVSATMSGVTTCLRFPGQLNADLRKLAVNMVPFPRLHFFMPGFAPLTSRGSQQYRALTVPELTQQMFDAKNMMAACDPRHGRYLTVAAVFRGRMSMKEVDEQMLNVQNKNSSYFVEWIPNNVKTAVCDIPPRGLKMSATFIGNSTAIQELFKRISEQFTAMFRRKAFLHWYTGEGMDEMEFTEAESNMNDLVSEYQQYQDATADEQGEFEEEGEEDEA

Regarding `COc1cc(C(=O)Nc2c(C#N)c3n(c2C(=O)Nc2ccc(Cl)cc2)CCC3)cc(OC)c1OC` [16d, N-(4-Chlorophenyl)-7-cyano-6-(3,4,5-trimethoxybenzamido) -2,3-dihydro-1H-pyrrolizine-5-carboxamide], the “effect on tubulin polymerisation” value in assay [1] was “moderate inhibitory activity”. In assay [2], the IC50 is 0.113 ± 0.017 µM. Further, in assay [3], the “% Cell number, Early apoptosis” value amounted to 7.50 ± 0.95%; the “% Cell number, Late apoptosis” value was found to be 19.94 ± 1.30%; the “% Cell number, Live cells” value came out at 71.99 ± 2.88%; the “% Cell number, Necrosis” value was 2.51% and 2.51 ± 0.45%. The IC50 in assay [4] was 0.52 ± 0.066 µM.
As to `COc1cc(C(=O)Nc2c(C#N)c3n(c2C(=O)Nc2ccc(C)cc2)CCC3)cc(OC)c1OC` [16b, 7-Cyano-N-(p-tolyl)-6-(3,4,5-trimethoxybenzamido)-2,3-dihydro-1H-pyrrolizine-5-carboxamide], the “effect on tubulin polymerisation” value in assay [1] is on record as “moderate inhibitory activity”. Further, the IC50 in assay [2] amounted to 0.265 ± 0.021 µM. Also, in assay [3], the “% Cell number, Early apoptosis” value came to 6.22 ± 0.22%; the “% Cell number, Late apoptosis” value worked out at 13.01 ± 1.02%; the “% Cell number, Live cells” value is given as 75.00 ± 2.90%; the “% Cell number, Necrosis” value is 7.11% and 7.11 ± 0.80%. Further, in assay [4], the IC50 came to 6.26 ± 0.71 µM.
Take `COc1cc(C(=O)Nc2c(C#N)c3n(c2C(=O)Nc2ccccc2)CCC3)cc(OC)c1OC` [16a, 7-Cyano-N-phenyl-6-(3,4,5-trimethoxybenzamido)-2,3-dihydro-1H-pyrrolizine-5-carboxamide]: the “effect on tubulin polymerisation” value in assay [1] was “weak”. In addition, in assay [2], the IC50 was determined as 0.086 ± 0.016 µM. Moreover, in assay [3], the “% Cell number, Early apoptosis” value is listed as 8.40 ± 0.87%; the “% Cell number, Late apoptosis” value amounted to 10.70 ± 1.06%; the “% Cell number, Live cells” value is 77.40 ± 1.39%; the “% Cell number, Necrosis” value was 3.50% and 3.50 ± 0.37%. The “apoptosis (early and late events)” value in assay [3] (control 1%) amounted to 19%. In assay [4], the IC50 is 1.57 ± 0.04 µM.

The values above are taken from publication PMC8221158, “Novel pyrrolizines bearing 3,4,5-trimethoxyphenyl moiety: design, synthesis, molecular docking, and biological evaluation as potential multi-target cytotoxic agents” (Journal of Enzyme Inhibition and Medicinal Chemistry, 2021).
